Assay results from ChEMBL document CHEMBL3045777, “Response of selected horseweed (Conyza canadensis (L.) Cronq.) populations to glyphosate” (2004).

Assays:
Erigeron canadensis [1] = assay: Herbicidal activity against compound-resistant Conyza canadensis (horseweed) isolate 2 under greenhouse condition at 9 kg ae/ha measured 14 days post treatment relative to control; assay type: functional
Erigeron canadensis [2] = assay: Herbicidal activity against compound-sensitive Conyza canadensis (horseweed) under greenhouse condition at 2.52 kg ae/ha measured 7 days post treatment relative to control; assay type: functional
Erigeron canadensis [3] = assay: Herbicidal activity against compound-resistant Conyza canadensis (horseweed) isolate 2 under greenhouse condition at 2.52 kg ae/ha measured 7 days post treatment relative to control; assay type: functional
Erigeron canadensis [4] = assay: Herbicidal activity against compound-resistant Conyza canadensis (horseweed) isolate 2 under greenhouse condition assessed as fresh weight at 3.36 kg ae/ha measured 21 days post treatment relative to untreated control
Erigeron canadensis [5] = assay: Herbicidal activity against compound-sensitive Conyza canadensis (horseweed) under greenhouse condition at 1.68 kg ae/ha measured 14 days post treatment relative to control; assay type: functional
Erigeron canadensis [6] = assay: Herbicidal activity against compound-sensitive Conyza canadensis (horseweed) under greenhouse condition assessed as fresh weight at 0.45 kg ae/ha measured 21 days post treatment relative to untreated control
Erigeron canadensis [7] = assay: Herbicidal activity against compound-resistant Conyza canadensis (horseweed) isolate 2 under greenhouse condition at 2.52 kg ae/ha measured 21 days post treatment relative to control; assay type: functional
Erigeron canadensis [8] = assay: Herbicidal activity against compound-resistant Conyza canadensis (horseweed) isolate 1 under greenhouse condition at 0.84 kg ae/ha measured 14 days post treatment relative to control; assay type: functional
Erigeron canadensis [9] = assay: Herbicidal activity against compound-sensitive Conyza canadensis (horseweed) under greenhouse condition at 0.45 kg ae/ha measured 7 days post treatment relative to control; assay type: functional
Erigeron canadensis [10] = assay: Herbicidal activity against compound-resistant Conyza canadensis (horseweed) isolate 2 under greenhouse condition assessed as fresh weight at 2.52 kg ae/ha measured 21 days post treatment relative to untreated control
Erigeron canadensis [11] = assay: Herbicidal activity against compound-sensitive Conyza canadensis (horseweed) under greenhouse condition assessed as fresh weight at 3.36 kg ae/ha measured 21 days post treatment relative to untreated control
Erigeron canadensis [12] = assay: Herbicidal activity against Conyza canadensis (horseweed) under greenhouse condition assessed as decrease in fresh weight at 0.05 kg ae/ha measured 21 days post treatment relative to untreated control; assay type: functional
Erigeron canadensis [13] = assay: Herbicidal activity against compound-resistant Conyza canadensis (horseweed) isolate 1 under greenhouse condition at 0.45 kg ae/ha measured 7 days post treatment relative to control; assay type: functional
Erigeron canadensis [14] = assay: Herbicidal activity against compound-resistant Conyza canadensis (horseweed) isolate 1 under greenhouse condition assessed as fresh weight at 0.84 kg ae/ha measured 21 days post treatment relative to untreated control
Erigeron canadensis [15] = assay: Herbicidal activity against compound-sensitive Conyza canadensis (horseweed) under greenhouse condition at 0.84 kg ae/ha measured 14 days post treatment relative to control; assay type: functional
Erigeron canadensis [16] = assay: Herbicidal activity against Conyza canadensis (horseweed) under greenhouse condition at 0.05 kg ae/ha measured 21 days post treatment relative to control; assay type: functional
Erigeron canadensis [17] = assay: Herbicidal activity against compound-sensitive Conyza canadensis (horseweed) under greenhouse condition at 3.36 kg ae/ha measured 21 days post treatment relative to control; assay type: functional
Erigeron canadensis [18] = assay: Herbicidal activity against compound-resistant Conyza canadensis (horseweed) isolate 1 under greenhouse condition at 0.84 kg ae/ha measured 21 days post treatment relative to control; assay type: functional
Erigeron canadensis [19] = assay: Herbicidal activity against compound-resistant Conyza canadensis (horseweed) isolate 1 under greenhouse condition assessed as fresh weight at 0.45 kg ae/ha measured 21 days post treatment relative to untreated control
Erigeron canadensis [20] = assay: Herbicidal activity against compound-sensitive Conyza canadensis (horseweed) under greenhouse condition assessed as fresh weight at 0.84 kg ae/ha measured 21 days post treatment relative to untreated control
Erigeron canadensis [21] = assay: Herbicidal activity against compound-resistant Conyza canadensis (horseweed) isolate 2 under greenhouse condition at 2.52 kg ae/ha measured 14 days post treatment relative to control; assay type: functional
Erigeron canadensis [22] = assay: Herbicidal activity against compound-resistant Conyza canadensis (horseweed) isolate 1 under greenhouse condition assessed as fresh weight at 1.25 kg ae/ha measured 21 days post treatment relative to untreated control
Erigeron canadensis [23] = assay: Herbicidal activity against compound-sensitive Conyza canadensis (horseweed) under greenhouse condition at 0.45 kg ae/ha measured 14 days post treatment relative to control; assay type: functional
Erigeron canadensis [24] = assay: Herbicidal activity against compound-resistant Conyza canadensis (horseweed) isolate 1 under greenhouse condition at 3.36 kg ae/ha measured 21 days post treatment relative to control; assay type: functional
Erigeron canadensis [25] = assay: Herbicidal activity against compound-resistant Conyza canadensis (horseweed) isolate 2 under greenhouse condition at 1.25 kg ae/ha measured 21 days post treatment relative to control; assay type: functional
Erigeron canadensis [26] = assay: Herbicidal activity against compound-resistant Conyza canadensis (horseweed) isolate 1 under greenhouse condition at 3.36 kg ae/ha measured 7 days post treatment relative to control; assay type: functional
Erigeron canadensis [27] = assay: Herbicidal activity against compound-resistant Conyza canadensis (horseweed) isolate 2 under greenhouse condition assessed as fresh weight at 1.25 kg ae/ha measured 21 days post treatment relative to untreated control
Erigeron canadensis [28] = assay: Herbicidal activity against compound-resistant Conyza canadensis (horseweed) isolate 1 under greenhouse condition assessed as fresh weight at 9 kg ae/ha measured 21 days post treatment relative to untreated control
Erigeron canadensis [29] = assay: Herbicidal activity against compound-sensitive Conyza canadensis (horseweed) under greenhouse condition at 9 kg ae/ha measured 21 days post treatment relative to control; assay type: functional
Erigeron canadensis [30] = assay: Herbicidal activity against compound-resistant Conyza canadensis (horseweed) isolate 1 under greenhouse condition assessed as fresh weight at 2.52 kg ae/ha measured 21 days post treatment relative to untreated control
Erigeron canadensis [31] = assay: Herbicidal activity against compound-resistant Conyza canadensis (horseweed) isolate 1 under greenhouse condition at 1.68 kg ae/ha measured 21 days post treatment relative to control; assay type: functional
Erigeron canadensis [32] = assay: Herbicidal activity against compound-resistant Conyza canadensis (horseweed) isolate 1 under greenhouse condition at 2.52 kg ae/ha measured 7 days post treatment relative to control; assay type: functional
Erigeron canadensis [33] = assay: Herbicidal activity against compound-resistant Conyza canadensis (horseweed) isolate 2 under greenhouse condition at 1.68 kg ae/ha measured 21 days post treatment relative to control; assay type: functional
Erigeron canadensis [34] = assay: Herbicidal activity against compound-resistant Conyza canadensis (horseweed) isolate 2 under greenhouse condition at 0.45 kg ae/ha measured 21 days post treatment relative to control; assay type: functional
Erigeron canadensis [35] = assay: Herbicidal activity against compound-resistant Conyza canadensis (horseweed) isolate 1 under greenhouse condition at 0.45 kg ae/ha measured 14 days post treatment relative to control; assay type: functional

Question: How did the Activity (Erigeron canadensis [1]) turn out when O=C(O)CNCP(=O)(O)O [GLYPHOSATE] was run?
Answer: The Activity was 91%.

Question: And the Activity (Erigeron canadensis [2])?
Answer: The Activity was 83%.

Question: What about the Activity (Erigeron canadensis [3]) of the same molecule?
Answer: The Activity was 53%.

Question: What about the “level, % of control” value (Erigeron canadensis [4]) of the same molecule?
Answer: Its value is 18%.

Question: What about the Activity (Erigeron canadensis [5]) of the same molecule?
Answer: The Activity was 98%.

Question: And the “level, % of control” value (Erigeron canadensis [6])?
Answer: Its value is 30%.

Question: And the Activity (Erigeron canadensis [7])?
Answer: The Activity was 63%.

Question: What about the Activity (Erigeron canadensis [8]) of the same molecule?
Answer: The Activity was 13%.

Question: And the Activity (Erigeron canadensis [9])?
Answer: The Activity was 40%.

Question: And the “level, % of control” value (Erigeron canadensis [10])?
Answer: The value was 24%.

Question: What about the “level, % of control” value (Erigeron canadensis [11]) of the same molecule?
Answer: Its value is 6%.

Question: What about the Activity (Erigeron canadensis [12]) of the same molecule?
Answer: Its Activity is 4 g.

Question: What about the Activity (Erigeron canadensis [13]) of the same molecule?
Answer: The Activity was 10%.

Question: What about the “level, % of control” value (Erigeron canadensis [14]) of the same molecule?
Answer: Its value is 94%.

Question: And the Activity (Erigeron canadensis [15])?
Answer: Its Activity is 63%.

Question: What about the Activity (Erigeron canadensis [16]) of the same molecule?
Answer: The Activity was 26%.

Question: What about the Activity (Erigeron canadensis [17]) of the same molecule?
Answer: The Activity was 99%.

Question: What about the Activity (Erigeron canadensis [18]) of the same molecule?
Answer: The Activity was 11%.

Question: And the “level, % of control” value (Erigeron canadensis [19])?
Answer: Its value is 99%.

Question: What about the “level, % of control” value (Erigeron canadensis [20]) of the same molecule?
Answer: Its value is 27%.

Question: What about the Activity (Erigeron canadensis [21]) of the same molecule?
Answer: Its Activity is 50%.

Question: And the “level, % of control” value (Erigeron canadensis [22])?
Answer: The value was 88%.

Question: What about the Activity (Erigeron canadensis [23]) of the same molecule?
Answer: The Activity was 40%.

Question: What about the Activity (Erigeron canadensis [24]) of the same molecule?
Answer: The Activity was 75%.

Question: What about the Activity (Erigeron canadensis [25]) of the same molecule?
Answer: Its Activity is 25%.

Question: And the Activity (Erigeron canadensis [26])?
Answer: Its Activity is 73%.

Question: And the “level, % of control” value (Erigeron canadensis [27])?
Answer: Its value is 73%.

Question: What about the “level, % of control” value (Erigeron canadensis [28]) of the same molecule?
Answer: Its value is 9%.

Question: And the Activity (Erigeron canadensis [29])?
Answer: The Activity was 99%.

Question: And the “level, % of control” value (Erigeron canadensis [30])?
Answer: Its value is 25%.

Question: What about the Activity (Erigeron canadensis [31]) of the same molecule?
Answer: The Activity was 43%.

Question: And the Activity (Erigeron canadensis [32])?
Answer: Its Activity is 58%.

Question: What about the Activity (Erigeron canadensis [33]) of the same molecule?
Answer: Its Activity is 50%.

Question: And the Activity (Erigeron canadensis [34])?
Answer: The Activity was 20%.

Question: And the Activity (Erigeron canadensis [35])?
Answer: The Activity was 8%.
